Where “and” joins values, the source holds several entries; their conditions need not be identical. Equal values may be shown once. Read-outs that look alike come from different tables or passages of the source.
Columns and labels:
[1] = system: Lice (L) / Plutella (P) eggs; format: in vivo; conditions: Lice/Plutella: P
Method: Log LD50 is obtained from the observed percentage ovicidal activity by conversion using a modified logit transformation. The observed percentage ovicidal activity values were transformed using the equation:
The additional 5% was used to allow a number to be calculated when 0% and 100% activity was observed. The BA is a crude correction to the log of the concentration at which the compounds were tested. Correlation between BA values and LD50 allows the calculation of Log LD50. […] A number of metal chelating agents with potential for inhibiting the remodelling events associated with thin membrane egg hatching in lice were analysed by comparing their percentage ovicidal activity in lice at different concentrations, their logit calculated pLD50, Pref pLD50, Activity class, clogP and molar refractivity were determined.

[2] = system: Plutella xylostella eggs (Waite strain); test: Plutella xylostella egg hatch (egg dip); conditions: for ovicidal efficacy against Plutella eggs (FIG. 7): 1% diethoxyglycol; for egg hatching of Plutella eggs (Tables 10 and 11): cloth or parafilm; for % Inhibition of egg hatch relative to control: Example 12, dip 2-10 seconds, day 6 post laying
Method: Several hundred Plutella xylostella eggs (Waite strain) were collected, that had been laid over a 24 hour period.
The egg masses were then placed in a humid box at 25° C. until egg hatch. Control eggs were exposed to absolute methanol as described above. At day 6 post laying the eggs were assessed from the different treatments and the percentage of egg hatch determined relative to the control as shown in Table 9.
Batches of Plutella eggs that were laid on either fine cloth or parafilm were dipped in a specific inhibitor solution for between 2-10 seconds, the excess solution was drained by blotting with dry tissue paper. The egg masses were then placed in a humid box at 25 degrees until egg hatch. Control eggs were exposed to absolute methanol as described above or not treated. At day 6 post laying the eggs were assessed from the different treatments and the percentage of egg hatch determined relative to the controls as shown in Tables 10 and 11.
The egg masses were then placed in a humid box at 25 degrees until egg hatch. Control eggs were exposed to absolute ethanol as described above. On day 6 post laying the eggs were assessed from the different treatments and the percentage of egg hatch determined relative to the control.

[3] = system: Helicoverpa armigera eggs; test: Helicoverpa egg hatch; conditions: for ovicidal efficacy against H. armigera eggs (FIG. 6): 1% diethoxyglycol in water; for % Inhibition of egg hatch relative to control: Example 16, exposed 2-10 seconds, day 6 post laying
Method: A range of concentrations were made up in water and the eggs placed in the solutions for approximately 2-10 seconds. The eggs which had been laid on cloth were then blotted dry and placed in an incubator at 26° C. for 3-4 days until hatch. Hatch rates were then assessed compared to a water only treated control (FIG. 5).
The compound was dissolved in 100% diethoxyglycol and diluted to a final concentration of 1% in water.
Several hundred Helicoverpa armigera eggs (Tatura×Toowoomba strains) were collected, that had been laid on fine mesh cloth over a 24 hour period.
Batches of Helicoverpa eggs were exposed to a specific inhibitor solution for between 2-10 seconds the excess solution drained by blotting with dry tissue paper. The egg masses were then placed in a humid box at 25 degrees until egg hatch. Control eggs were exposed to absolute methanol as described above. At day 6 post laying the eggs were assessed from the different treatments and the percentage of egg hatch determined relative to the control as shown in Table 12.
Batches of Helicoverpa eggs were then exposed to a specific inhibitor solution for between 2-10 seconds the excess solution drained by blotting with dry tissue paper. The egg masses were then placed in a humid box at 25° C. until egg hatch. Control eggs were exposed to absolute methanol as described above. At day 6 post laying the eggs were assessed from the different treatments and the percentage of egg hatch determined relative to the control as shown in Table 13.

H. contortus eggs = test: Haemonchus contortus egg hatch; format: in vivo
Method: In an attempt to improve control of H. contortus the effects of the compound 5,5′-dimethyl-2,2′-dipyridyl was examined on H. contortus eggs. Eggs were recovered from the faeces of infected sheep using a standard sucrose floatation method. The eggs were corrected to a density of approximately 2,500 eggs per mL and were then exposed to varying concentrations of compound and incubated for 48 hours at 25° C. The eggs were then examined to determine the ovicidal efficacy of the compound in comparison to untreated control and a solvent only control.
In addition, the ovicidal efficacy of the compound 2-acetyl-1-tetralone was examined against H. contortus (FIG. 10). The same protocol was used as described for 5,5′-dimethyl-2,2′-dipyridyl.

[4] = system: Third stage H. contortus larvae; test: Survival of third stage H. contortus larvae (L3 to L4); format: in vivo, Haemonchus contortus
Method: Third stage H. contortus larvae were exposed to varying concentrations of 5,5′-dimethyl-2,2′-dipyridyl and the effects on moulting from L3 to L4 examined. The larvae were either exsheathed (their L2 sheath was removed chemically) or unexsheathed (their L2 sheaths were intact). The larvae were exposed to varying concentrations of 5,5′-dimethyl-2,2′-dipyridyl added to their culture media of DMEM and the effects on larval survival monitored over time. Following a 30 minute incubation at 37° C., greater than 90% of the exsheathed larvae exposed to 1 and 0.5 mM of the compound appeared dead. […] By day six post exposure greater than 90% of the larvae appeared to have died in the treatment groups while the control larvae appeared healthy.

house dust mite = test: House dust mite counts on treated filter paper; format: in vivo, Dermatophagoides spp; conditions: per replicate; for 2 week count (mite count): 2 weeks at 25° C. and 75% RH
Method: A filter paper (90 mm diameter) was taken and placed in a Petri dish of the same dimensions. The filter paper was then wetted throughout with the test compound, using a small air pump sprayer. The wetted filter paper was then allowed to dry in free flowing air. 200 mg dust mite medium, containing roughly 500 mites/g, was placed on the filter paper and the number of mites counted under a microscope. The arena was then left for 2 weeks on an incubator at 25° C. and 75% RH. After 2 weeks the number of mites in the arena was counted for a second time. This experiment was repeated 3 times with the test compound and a further 3 times using water as a control.

head lice eggs = test: Formulated compound on egg hatching in head lice; format: in vivo; conditions: 20 mM formulation
Method: Gravid female lice were permitted to lay eggs. The eggs were counted, inspected under a light microscope and all eggs that appeared undamaged were allocated to one of two treatment groups. One group was exposed to 5′-dimethyl-2,2′-dipyridyl in a formulation, while the second group was exposed to the formulation only. The protocol was as follows:
Treatments: 5′-dimethyl-2,2′-dipyridyl (20 mM) n=10 • Vehicle control only n=10
Exposure time: 10 minutes
Wash time: 1 minute @˜37° C.
Incubation: All eggs were placed at 31° C. in a humid incubator and monitored for signs of development specifically of the eyes and subsequent hatching, see Table 21.

[5] = system: Plutella xylostella eggs (Waite strain); test: Reversal of ovicidal effect by added metal ions (FeSO4), Plutella eggs; format: in vivo
Method: (§1) Within 24 hours of collection the following experimental design was chosen. Batches of eggs were exposed to 10 mM 6,6′-dimethyl-2,2′-dipyridyl for 2 seconds while additional batches of eggs were exposed to the solvent only (Methanol) for 2 seconds. All batches of eggs were allowed to air dry for 20 minutes at room temperature. The eggs were then given a 2 second exposure to FeSO4 at either 10, 5 or 1 mM, air dried and put in the incubator at 24° C. and allowed to hatch over the next 6 days. In addition, a positive control of 10 mM 6,6′-dimethyl-2,2′-dipyridyl was set up in which eggs were exposed to this compound for 2 seconds, air dried and placed in the incubator.
as §1, with “10 mM 5,5′-dimethyl-2,2′-dipyridyl for 2” for “10 mM 6,6′-dimethyl-2,2′-dipyridyl for 2”, “FeSO4 at 10, 5” for “FeSO4 at either 10, 5”, “put in an incubator at” for “put in the incubator at”, “of 10 mM, 5,5′-dimethyl-2,2′-dipyridyl was set” for “of 10 mM 6,6′-dimethyl-2,2′-dipyridyl was set”

[6] = 10 mM compound followed by 2 second exposure to 1 mM FeSO4
[7] = 10 mM compound followed by 2 second exposure to 5 mM FeSO4
[8] = 10 mM compound followed by 2 second exposure to 10 mM FeSO4

CC(=O)C1CCc2ccccc2C1=O (stereo not drawn) [2-acetyl-1-tetralone]
Activity class 0 = inactive 1 = low 2 = med 3 = high ([1]; 1 mM): 3 (a pLD50 greater than 4 is considered strongly active (Class 3))
Activity class 0 = inactive 1 = low 2 = med 3 = high ([1]; 10 mM): 1 (a pLD50 value between 2 and 3 is considered weakly active (Class 1))
ovicidal efficacy against Plutella eggs (FIG. 7) ([2]; 0.5 mM): no inhibition
ovicidal efficacy against Plutella eggs (FIG. 7) ([2]; 2 and 1 mM): strong ovicidal efficacy
ovicidal efficacy against H. armigera eggs (FIG. 6) ([3]; 1 mM): efficacy declining
ovicidal efficacy against H. armigera eggs (FIG. 6) ([3]; 2 mM): strong ovicidal efficacy
inhibition of H. contortus egg hatch (FIG. 10) (H. contortus eggs; 22 ug/mL (0.1 mM)): Partial inhibition
inhibition of H. contortus egg hatch (FIG. 10) (H. contortus eggs; 220 ug/mL (1 mM) and 110 ug/mL (0.5 mM)): highly effective

Cc1ccc(-c2ccc(C)cn2)nc1 [5,5′-dimethyl-2,2′-dipyridyl]
appearance of unexsheathed larvae ([4]; 10 μM, up to 6 days post exposure): appeared normal
effects on unexsheathed larvae compared to control larvae ([4]; up to 3 days post exposure): no adverse effects
egg hatching of Plutella eggs (Tables 10 and 11) ([2]; 10 and 1 mM): significantly inhibit
2 week count (mite count) (house dust mite; listed as Test Compound): 50 and 90
2 week count (mite count) (house dust mite; listed as Test compound): 74
1 hour count (mite count) (house dust mite; listed as Test Compound): 61 and 104
1 hour count (mite count) (house dust mite; listed as Test compound): 76
ovicidal efficacy on H. contortus eggs (FIG. 8) (H. contortus eggs; 180 and 18 ug/mL (equivalent to 1 and 0.1 mM), 48 hours at 25° C.): potently ovicidal
egg hatching in head lice (head lice eggs; 10 minutes exposure): significantly suppress
eggs that failed to hatch (head lice eggs; the eggs other than the two that developed): 80%
% Inhibition relative to the FeSO4 controls [5, 6]: 0%
% Inhibition relative to the FeSO4 controls [5, 7]: 0%
% Inhibition relative to the FeSO4 controls [5, 8]: 8%

Cc1cccc(-c2cccc(C)n2)n1 [6,6′-dimethyl-2,2′-dipyridyl]
% Inhibition of egg hatch relative to control ([2]; 1 mM): strong ovicidal effects
% Inhibition of egg hatch relative to control ([2]; 10 mM): strong ovicidal effects
egg hatching of Plutella eggs (Tables 10 and 11) ([2]; 0.1 and 0.01 mM): no observable effects
egg hatching of Plutella eggs (Tables 10 and 11) ([2]; 10 and 1 mM): effective at inhibiting egg hatching
% Inhibition of egg hatch relative to control ([3]; 0.001 mM): No inhibition
% Inhibition of egg hatch relative to control ([3]; 0.01 mM): No inhibition
% Inhibition of egg hatch relative to control ([3]; 0.1 mM): No inhibition
% Inhibition of egg hatch relative to control ([3]; 1 mM): significantly inhibit
% Inhibition of egg hatch relative to control ([3]; 10 mM): significantly inhibit
% Inhibition relative to the FeSO4 controls [5, 6]: 3%
% Inhibition relative to the FeSO4 controls [5, 7]: 0%
% Inhibition relative to the FeSO4 controls [5, 8]: 38%
